Holding throughout (assay type): cell-based
For assay [1], the system named is Aspergillus fumigatus. The assay is described as follows: Antifungal activity, minimum growth inhibition concentration (MIC), Aspergillus fumigatus. To be noted: Sabouraud dextrose agar, 27° C., 2 to 4 days. Here is the method:
(§1) The minimum growth inhibition concentrations (MIC) of the present substances against eumycetes are as tabulated below.
(§2) Culture medium: Sabouraud dextrose agar
(§3) Culturing conditions: 27° C., 2 to 4 days

In assay [2] the test system is Candida albicans. The assay is described as follows: Antifungal activity, minimum growth inhibition concentration (MIC), Candida albicans. To be noted: Sabouraud dextrose agar, 27° C., 2 to 4 days. On the procedure:
as §1, §2, §3

Assay [3] concerns Cryptococcus neoformans. The experiment in a line: Antifungal activity, minimum growth inhibition concentration (MIC), Cryptococcus neoformans. Particulars: Sabouraud dextrose agar, 27° C., 2 to 4 days. Here is the method: as §1, §2, §3
Assay [4] has as its system Trichophyton mentagraphytes. The experiment in a line: Antifungal activity, minimum growth inhibition concentration (MIC), Trichophyton mentagraphytes. Here is the method: as §1, §2, §3
Assay [5] relates to Trichophyton rubrum. The experiment in a line: Antifungal activity, minimum growth inhibition concentration (MIC), Trichophyton rubrum. To be noted: Sabouraud dextrose agar, 27° C., 2 to 4 days. Here is the method: as §1, §2, §3

≈ marks a conversion by molar mass, not a printed value.

By MIC is commonly meant the lowest concentration found to suppress growth. A lower MIC goes with inhibition by little substance. In the case of `CCCCC=C[N+]([O-])=NC(C)C(C)=O` (stereo not shown) [KA-7367A], the MIC in assay [1] was found to be 6.25 µg/mL (≈ 31.5 µM); in assay [2] it was 1.6 µg/mL (≈ 8.07 µM); in assay [3], 3.2 µg/mL (≈ 16.1 µM); in assay [4], 6.25 µg/mL (≈ 31.5 µM); in assay [5], 3.2 µg/mL (≈ 16.1 µM).
Turning to `CCCCC=C[N+]([O-])=NC(C)C(C)O` (stereo not shown) [KA-7367B], the MIC in assay [1] came out at 100 µg/mL (≈ 499 µM); in assay [2] it was 50 µg/mL (≈ 250 µM); in assay [3] it was 100 µg/mL (≈ 499 µM); in assay [4] it was 100 µg/mL (≈ 499 µM); in assay [5] it was 100 µg/mL (≈ 499 µM).

The record behind these values is patent US4981954A, “Novel azoxy compounds and process for production thereof” (Kowa Company, Ltd., priority 1987, dated 1991).
